Results published in PMC7031696 (Cell chemical biology, 2019).
Where two headings read alike, the source gives them in different places.

Assays:
[1] = tested on: Plasmodium falciparum 3D7-A10 parasites; experiment: Stage specificity assay (8-h exposure of synchronized stages, IC50^8h); format: cell-based; conditions: for IC50: Plasmodium falciparum
[2] = tested on: asynchronous 3D7-A10 parasite cultures; experiment: Standard 72-h exposure asexual blood stage susceptibility assay (IC50^72h); format: cell-based, Plasmodium falciparum; conditions: Plasmodium falciparum, 3D7, 72 h, read-out: Overall (72hr assay) Mean IC50 (IC50^72h)
[3] = tested on: 3D7-MR4 trophozoite parasite-infected RBCs; experiment: Metabolomic profiling (hydrophilic metabolite changes, UHPLC-MS); format: cell-based, Plasmodium falciparum

FC(F)(F)c1cccc(Nc2nc3ccccc3nc2Nc2cccc(C(F)(F)F)c2)c1 [MMV665794]
Ratio lowest IC50 8hr/IC50 72hr ([1]; 3D7-A10): 1.8 | IC50 ([1]; 3D7, read-out: Early rings Mean IC50 (IC50^8h), 8-h exposure 0–8 hr, 3D7-A10, survival at 60 h): 369 nM | IC50 ([1]; 3D7, read-out: Early trophozoites Mean IC50 (IC50^8h), 8-h exposure 16–24 hr, 3D7-A10, survival at 60 h): 210 nM | IC50 ([1]; 3D7, read-out: Late rings Mean IC50 (IC50^8h), 8-h exposure 8–16 hr, 3D7-A10, survival at 60 h): 590 nM | IC50 ([1]; 3D7, read-out: Late trophozoites Mean IC50 (IC50^8h), 8-h exposure 24–32 hr, 3D7-A10, survival at 60 h): 165 nM | IC50 ([1]; 3D7, read-out: Schizonts Mean IC50 (IC50^8h), 8-h exposure 32–40 hr, 3D7-A10, survival at 60 h): 203 nM | IC50 [2]: 91.3 nM | Log2(fold changes) 3-phosphoglycerate ([3]; metabolite 3-phosphoglycerate, log2 fold change): 0.1475 | Log2(fold changes) 4-Pyridoxic acid ([3]; metabolite 4-Pyridoxic acid, log2 fold change): 0.1397 | Log2(fold changes) 4-aminobutyrate ([3]; metabolite 4-aminobutyrate, log2 fold change): -0.1443 | Log2(fold changes) 4-phosphopantetheine ([3]; metabolite 4-phosphopantetheine, log2 fold change): 0.0000 | Log2(fold changes) 4-phosphopantothenate ([3]; metabolite 4-phosphopantothenate, log2 fold change): 0.0000 | Log2(fold changes) 5-aminopentanoic acid ([3]; metabolite 5-aminopentanoic acid, log2 fold change): 0.0000 | Log2(fold changes) 5-methyl-THF ([3]; metabolite 5-methyl-THF, log2 fold change): 0.0000 | Log2(fold changes) 5-phosphoribosyl-1-pyrophosphate ([3]; metabolite 5-phosphoribosyl-1-pyrophosphate, log2 fold change): 0.0000 | Log2(fold changes) 6-phospho-D-gluconate ([3]; metabolite 6-phospho-D-gluconate, log2 fold change): 0.0648 | Log2(fold change) HVDD ([3]; metabolite HVDD): 0.0000 | Log2(fold change) Hydroxyisocaproic acid ([3]; metabolite Hydroxyisocaproic acid): 0.0000 | Log2(fold change) IDP ([3]; metabolite IDP): 0.0000 | Log2(fold change) IMP ([3]; metabolite IMP): -0.1724 | Log2(fold change) Inositol ([3]; metabolite Inositol): 0.4519 | Log2(fold change) Isopentyl-PP ([3]; metabolite Isopentyl-PP): 0.0000 | Log2(fold change) L-arginino-succinate ([3]; metabolite L-arginino-succinate): 0.0000 | Log2(fold change) LD ([3]; metabolite LD): 0.2876 | Log2(fold change) Myristoyl/tetradecanoyl-CoA ([3]; metabolite Myristoyl/tetradecanoyl-CoA): 0.0000 | Log2(fold change) N-Acetyl-L-alanine ([3]; metabolite N-Acetyl-L-alanine): -0.5892 | Log2(fold change) N-acetyl-L-ornithine ([3]; metabolite N-acetyl-L-ornithine): -0.6613 | Log2(fold change) N-acetyl-glucosamine-1/6-phosphate ([3]; metabolite N-acetyl-glucosamine-1/6-phosphate): 0.0457 | Log2(fold change) N-acetyl-glutamate ([3]; metabolite N-acetyl-glutamate): 0.0432 | Log2(fold change) N-acetyl-glutamine ([3]; metabolite N-acetyl-glutamine): -0.6444 | Log2(fold change) N-carbamoyl-L-aspartate ([3]; metabolite N-carbamoyl-L-aspartate): 0.7842 | Log2(fold change) NAD+ ([3]; metabolite NAD+): -0.0023 | Log2(fold change) NADH ([3]; metabolite NADH): 0.0000 | Log2(fold change) NADP+ ([3]; metabolite NADP+): 0.2420 | Log2(fold change) NADPH ([3]; metabolite NADPH): 0.2872 | Log2(fold change) O-acetyl-L-serine ([3]; metabolite O-acetyl-L-serine): 0.0000 | Log2(fold change) Octoluse 8/1P ([3]; metabolite Octoluse 8/1P): -0.0525 | Log2(fold change) Octoluse Bisphosphate ([3]; metabolite Octoluse Bisphosphate): -0.0227 | Log2(fold change) PD ([3]; metabolite PD): -1.6060 | Log2(fold change) PE ([3]; metabolite PE): -1.2530 | Log2(fold change) PEE ([3]; metabolite PEE): -0.7348 | Log2(fold change) PEEK ([3]; metabolite PEEK): -2.1636 | Log2(fold change) PVNF ([3]; metabolite PVNF): -0.9738 | Log2(fold change) Pyroglutamic acid ([3]; metabolite Pyroglutamic acid): -0.1549 | Log2(fold change) Pyrophosphate ([3]; metabolite Pyrophosphate): 0.0000 | Log2(fold change) Ribose-5-phosphate ([3]; metabolite Ribose-5-phosphate): 0.0000 | Log2(fold change) S-adenosyl-L-homocysteine ([3]; metabolite S-adenosyl-L-homocysteine): -0.1116 | Log2(fold change) S-adenosyl-L-methioninamine ([3]; metabolite S-adenosyl-L-methioninamine): 0.0000 | Log2(fold change) S-adenosyl-L-methionine ([3]; metabolite S-adenosyl-L-methionine): 0.0000 | Log2(fold change) S-methyl-5'-thioadenosine ([3]; metabolite S-methyl-5'-thioadenosine): -0.0770 | Log2(fold change) SD ([3]; metabolite SD): -0.6103 | Log2(fold change) SDL ([3]; metabolite SDL): 0.0000 | Log2(fold change) SID ([3]; metabolite SID): 0.0000 | Log2(fold change) Sedoheptulose bisphosphate ([3]; metabolite Sedoheptulose bisphosphate): 0.0000 | Log2(fold change) Thiamine pyrophosphate ([3]; metabolite Thiamine pyrophosphate): 0.0000 | Log2(fold changes) UDP-D-glucose ([3]; metabolite UDP-D-glucose, log2 fold change): 0.0057 | Log2(fold changes) UDP-D-glucuronate ([3]; metabolite UDP-D-glucuronate, log2 fold change): 0.0333 | Log2(fold changes) UDP-N-acetyl-glucosamine ([3]; metabolite UDP-N-acetyl-glucosamine, log2 fold change): -0.0841 | Log2(fold changes) UDP ([3]; metabolite UDP, log2 fold change): -0.2966 | Log2(fold changes) UMP ([3]; metabolite UMP, log2 fold change): -0.1315 | Log2(fold changes) UTP ([3]; metabolite UTP, log2 fold change): -0.1979 | Log2(fold change) hydroxyphenylpyruvate ([3]; metabolite hydroxyphenylpyruvate): 0.0000 | Log2(fold change) hydroxyproline/Aminolevulinate ([3]; metabolite hydroxyproline/Aminolevulinate): 0.0000 | Log2(fold change) hypoxanthine ([3]; metabolite hypoxanthine): 0.0564 | Log2(fold change) indole ([3]; metabolite indole): 0.0000 | Log2(fold change) inosine ([3]; metabolite inosine): -0.1857 | Log2(fold change) isoleucine ([3]; metabolite isoleucine): 0.0000 | Log2(fold change) lactate ([3]; metabolite lactate): -0.1258 | Log2(fold change) leucine ([3]; metabolite leucine): 0.0000 | Log2(fold change) lysine ([3]; metabolite lysine): -1.0057 | Log2(fold change) malate ([3]; metabolite malate): -0.5114 | Log2(fold change) maleic acid ([3]; metabolite maleic acid): 0.0000 | Log2(fold change) methionine ([3]; metabolite methionine): 0.1032 | Log2(fold change) myo-inositol ([3]; metabolite myo-inositol): -0.1088 | Log2(fold change) nicotinamide mononucleotide ([3]; metabolite nicotinamide mononucleotide): 0.0000 | Log2(fold change) nicotinate ([3]; metabolite nicotinate): -0.0014 | Log2(fold change) ornithine ([3]; metabolite ornithine): -0.5221 | Log2(fold change) orotate ([3]; metabolite orotate): -0.1200 | Log2(fold change) orotidine-5'-phosphate ([3]; metabolite orotidine-5'-phosphate): -0.1502 | Log2(fold change) oxaloacetate ([3]; metabolite oxaloacetate): 0.0000 | Log2(fold change) p-aminobenzoate ([3]; metabolite p-aminobenzoate): 0.0000 | Log2(fold change) p-hydroxybenzoate ([3]; metabolite p-hydroxybenzoate): 0.0000 | Log2(fold change) pantothenate ([3]; metabolite pantothenate): -0.3232 | Log2(fold change) phenylalanine ([3]; metabolite phenylalanine): -0.3048 | Log2(fold change) phenylpyruvate ([3]; metabolite phenylpyruvate): 0.0000 | Log2(fold change) phosphoenolpyruvate ([3]; metabolite phosphoenolpyruvate): 0.2889 | Log2(fold change) prephenate ([3]; metabolite prephenate): 0.0000 | Log2(fold change) proline ([3]; metabolite proline): -0.1760 | Log2(fold change) pyridoxine ([3]; metabolite pyridoxine): -0.0343 | Log2(fold change) pyruvate ([3]; metabolite pyruvate): -0.4249 | Log2(fold change) riboflavin ([3]; metabolite riboflavin): 0.0000 | Log2(fold change) ribose ([3]; metabolite ribose): 0.0000 | Log2(fold change) ribose-phosphate ([3]; metabolite ribose-phosphate): -0.1845 | Log2(fold change) ribulose-5-phosphate ([3]; metabolite ribulose-5-phosphate): 0.0000 | Log2(fold change) serine ([3]; metabolite serine): -0.0943 | Log2(fold change) sn-glycerol-3-phosphate ([3]; metabolite sn-glycerol-3-phosphate): 0.1547 | Log2(fold change) succinate/Methylmalonic acid ([3]; metabolite succinate/Methylmalonic acid): 0.2773 | Log2(fold change) succinyl-CoA/methylmalonyl-CoA ([3]; metabolite succinyl-CoA/methylmalonyl-CoA): 0.0000 | Log2(fold change) taurine ([3]; metabolite taurine): 0.4682 | Log2(fold change) thiamine ([3]; metabolite thiamine): -0.4163 | Log2(fold change) threonine/homoserine ([3]; metabolite threonine/homoserine): -0.3057 | Log2(fold change) thymidine ([3]; metabolite thymidine): 0.0000 | Log2(fold changes) thymine ([3]; metabolite thymine, log2 fold change): 0.0000 | Log2(fold changes) trehalose-6-Phosphate ([3]; metabolite trehalose-6-Phosphate, log2 fold change): 0.0000 | Log2(fold changes) tryptophan ([3]; metabolite tryptophan, log2 fold change): -0.2265 | Log2(fold changes) tyrosine ([3]; metabolite tyrosine, log2 fold change): -0.1308 | Log2(fold changes) uridine ([3]; metabolite uridine, log2 fold change): -0.0071
